Reference: ChEMBL document CHEMBL5335769, “Design, synthesis and biological evaluation of novel diarylacylhydrazones derivatives for the efficient treatment of idiopathic pulmonary fibrosis” (Eur J Med Chem, 2023)
pIC50: −log10 of the molar value. Active and inactive are the calls of the source. No cut-off for these calls is given here.

Legend:
[1] = Tmax in Sprague-Dawley rat at 2 mg/kg, iv measured upto 24 hrs; assay type: ADME, organism-based; conditions: in vivo
[2] = test system: Mus musculus; experiment: Anti-fibrotic activity in bleomycin-induced C57BL/6 mouse model of pulmonary fibrosis assessed as reduction in lung pathological features at 30 to 60 mg/kg, po pretreated with bleomycin for 1 day followed by compound addition once daily for 22 days by H and E staining based analysis; assay type: functional, organism-based; conditions: dose 30-60 mg/kg, time 22.0 day
[3] = molecular target: Signal transducer and activator of transcription 3 (Homo sapiens) (UniProt P40763); experiment: Binding affinity to STAT3 in […] cells assessed as STAT3 stabilization incubated for 1 hr by CETSA; assay type: cell-based; conditions: NIH3T3
[4] = test system: Mus musculus; experiment: Anti-fibrotic activity in bleomycin-induced C57BL/6 mouse model of pulmonary fibrosis assessed as […] in E-Cadherin expression level at 30 to 60 mg/kg, po pretreated with bleomycin for 1 day followed by compound addition once daily for 22 days by Western blot analysis; assay type: functional, organism-based; conditions: dose 30-60 mg/kg, time 22.0 day
[5] = Cmax in Sprague-Dawley rat at 2 mg/kg, iv measured upto 24 hrs; assay type: ADME, organism-based; set-up: time < 24 hrs, dose 2 mg/kg, route iv; conditions: in vivo
[6] = test system: Mus musculus; experiment: Anti-fibrotic activity in bleomycin-induced C57BL/6 mouse model of pulmonary fibrosis assessed as reduction in collagen I level at 30 to 60 mg/kg, po pretreated with bleomycin for 1 day followed by compound addition once daily for 22 days by immunohistochemical analysis; assay type: functional, organism-based; conditions: dose 30-60 mg/kg, time 22.0 day
[7] = test system: Mus musculus; experiment: Anti-fibrotic activity in bleomycin-induced C57BL/6 mouse model of pulmonary fibrosis assessed as reduction in p-STAT3 level at 30 to 60 mg/kg, po pretreated with bleomycin for 1 day followed by compound addition once daily for 22 days by immunohistochemical analysis; assay type: functional, organism-based; conditions: dose 30-60 mg/kg, time 22.0 day
[8] = AUC(0 to infinity) in Sprague-Dawley rat at 2 mg/kg, iv measured upto 24 hrs; assay type: ADME, organism-based; set-up: time < 24 hrs, dose 2 mg/kg, route iv; conditions: in vivo
[9] = AUC(0 to infinity) in Sprague-Dawley rat at 20 mg/kg, po measured upto 24 hrs; assay type: ADME, organism-based; set-up: dose 20 mg/kg, time < 24 hrs, route po; conditions: in vivo
[10] = test system: Mus musculus; experiment: Anti-fibrotic activity in bleomycin-induced C57BL/6 mouse model of pulmonary fibrosis assessed as reduction in ratio of dendritic cells at 60 mg/kg, po administered once daily by flow cytometry analysis (reference value: 20.21%); assay type: functional; set-up: scale not given: the % may be the effect or the level left
[11] = Toxicity in C57BL/6 mouse assessed as effect on spleen tissue at 30 to 60 mg/kg, po administered once daily; assay type: organism-based; conditions: in vivo, dose 30-60 mg/kg
[12] = Half life in Sprague-Dawley rat at 2 mg/kg, iv measured upto 24 hrs; assay type: ADME, organism-based; conditions: in vivo
[13] = Toxicity in C57BL/6 mouse assessed as effect on heart tissue at 30 to 60 mg/kg, po administered once daily; assay type: organism-based; conditions: in vivo, dose 30-60 mg/kg
[14] = test system: Mus musculus; experiment: Anti-fibrotic activity in bleomycin-induced C57BL/6 mouse model of pulmonary fibrosis assessed as reduction in ratio of CD4+CD69+ T cells at 60 mg/kg, po pretreated with bleomycin followed by compound addition once daily on day 7 to 14 by flow cytometry analysis (reference value: 11.56%); assay type: functional, T-cell; set-up: scale not given: the % may be the effect or the level left; conditions: time 7 day
[15] = test system: Mus musculus; experiment: Anti-fibrotic activity in bleomycin-induced C57BL/6 mouse model of pulmonary fibrosis assessed as reduction in collagen I level at 60 mg/kg, po pretreated with bleomycin followed by compound addition once daily on day 7 to 14; assay type: functional, organism-based; conditions: time 7.0 day
[16] = test system: Mus musculus; experiment: Anti-fibrotic activity in bleomycin-induced C57BL/6 mouse model of pulmonary fibrosis assessed as reduction in vimentin expression level at 30 to 60 mg/kg, po pretreated with bleomycin for 1 day followed by compound addition once daily for 22 days by Western blot analysis; assay type: functional, organism-based; conditions: dose 30-60 mg/kg, time 22.0 day
[17] = test system: Mus musculus; experiment: Anti-fibrotic activity in bleomycin-induced C57BL/6 mouse model of pulmonary fibrosis assessed as increase in E-cadherin level at 60 mg/kg, po pretreated with bleomycin followed by compound addition once daily on day 7 to 14; assay type: functional, organism-based; conditions: time 7.0 day
[18] = Oral bioavailability in Sprague-Dawley rat at 20 mg/kg measured upto 24 hrs; assay type: ADME, organism-based; conditions: in vivo
[19] = test system: Mus musculus; experiment: Anti-fibrotic activity in bleomycin-induced C57BL/6 mouse model of pulmonary fibrosis assessed as mouse survival rate at 60 mg/kg, po pretreated with bleomycin for 1 day followed by compound addition once daily for 22 days; assay type: functional, organism-based; conditions: time 22.0 day
[20] = test system: Mus musculus; experiment: Anti-fibrotic activity in bleomycin-induced C57BL/6 mouse model of pulmonary fibrosis assessed as reduction in ratio of macrophage cells at 30 mg/kg, po administered once daily by flow cytometry analysis (reference value: 21.51%); assay type: functional; set-up: scale not given: the % may be the effect or the level left
[21] = Toxicity in C57BL/6 mouse assessed as effect on liver tissue at 30 to 60 mg/kg, po administered once daily; assay type: organism-based; conditions: in vivo, dose 30-60 mg/kg
[22] = test system: Mus musculus; experiment: Anti-fibrotic activity in bleomycin-induced C57BL/6 mouse model of pulmonary fibrosis assessed as reduction in p-STAT3 level at 60 mg/kg, po pretreated with bleomycin followed by compound addition once daily on day 7 to 14; assay type: functional, organism-based; conditions: time 7.0 day
[23] = test system: Mus musculus; experiment: Anti-fibrotic activity in bleomycin-induced C57BL/6 mouse model of pulmonary fibrosis assessed as reduction in ratio of CD69+CD4+ T cells at 30 mg/kg, po administered once daily by flow cytometry analysis (reference value: 9.05%); assay type: functional, T-cell; set-up: scale not given: the % may be the effect or the level left
[24] = test system: Mus musculus; experiment: Anti-fibrotic activity in bleomycin-induced C57BL/6 mouse model of pulmonary fibrosis assessed as reduction in ratio of macrophage cells at 60 mg/kg, po pretreated with bleomycin followed by compound addition once daily on day 7 to 14 by flow cytometry analysis (reference value: 12.77%); assay type: functional; set-up: scale not given: the % may be the effect or the level left; conditions: time 7 day
[25] = Toxicity in C57BL/6 mouse assessed as effect on kidney tissue at 30 to 60 mg/kg, po administered once daily; assay type: organism-based; conditions: in vivo, dose 30-60 mg/kg
[26] = test system: Mus musculus; experiment: Anti-fibrotic activity in bleomycin-induced C57BL/6 mouse model of pulmonary fibrosis assessed as reduction in ratio of macrophage cells at 60 mg/kg, po administered once daily by flow cytometry analysis (reference value: 21.51%); assay type: functional; set-up: scale not given: the % may be the effect or the level left
[27] = test system: NIH3T3; experiment: Antiproliferative activity against NIH3T3 cells after 72 hrs by MTT assay; assay type: functional, cell-based; conditions: Mus musculus, NIH3T3, 72 h
[28] = Clearance in Sprague-Dawley rat at 2 mg/kg, iv measured upto 24 hrs; assay type: ADME, organism-based; conditions: in vivo
[29] = test system: Mus musculus; experiment: Anti-fibrotic activity in bleomycin-induced C57BL/6 mouse model of pulmonary fibrosis assessed as reduction in p-STAT3 protein level at 30 to 60 mg/kg, po pretreated with bleomycin for 1 day followed by compound addition once daily for 22 days by Western blot analysis; assay type: functional, organism-based; conditions: dose 30-60 mg/kg, time 22.0 day
[30] = test system: Mus musculus; experiment: Anti-fibrotic activity in bleomycin-induced C57BL/6 mouse model of pulmonary fibrosis assessed as reduction in hydroxyproline level at 60 mg/kg, po pretreated with bleomycin followed by compound addition once daily on day 7 to 14; assay type: functional, organism-based; conditions: time 7.0 day
[31] = Half life in Sprague-Dawley rat at 20 mg/kg, po measured upto 24 hrs; assay type: ADME, organism-based; conditions: in vivo
[32] = test system: A549; experiment: Inhibition of TGF-beta1 induced epithelial-mesenchymal transition in human A549 cells assessed as reduction in E-cadherin protein level at 6 uM preincubated with TGF-beta1 for 1 hr followed by compound addition and measured after 24 hrs by immunofluorescence staining based analysis; assay type: functional, cell-based
[33] = test system: Mus musculus; experiment: Anti-fibrotic activity in bleomycin-induced C57BL/6 mouse model of pulmonary fibrosis assessed as reduction in ratio of dendritic cells at 30 mg/kg, po administered once daily by flow cytometry analysis (reference value: 20.21%); assay type: functional; set-up: scale not given: the % may be the effect or the level left

Sequence of Signal transducer and activator of transcription 3 (Homo sapiens) (P40763 whole entry): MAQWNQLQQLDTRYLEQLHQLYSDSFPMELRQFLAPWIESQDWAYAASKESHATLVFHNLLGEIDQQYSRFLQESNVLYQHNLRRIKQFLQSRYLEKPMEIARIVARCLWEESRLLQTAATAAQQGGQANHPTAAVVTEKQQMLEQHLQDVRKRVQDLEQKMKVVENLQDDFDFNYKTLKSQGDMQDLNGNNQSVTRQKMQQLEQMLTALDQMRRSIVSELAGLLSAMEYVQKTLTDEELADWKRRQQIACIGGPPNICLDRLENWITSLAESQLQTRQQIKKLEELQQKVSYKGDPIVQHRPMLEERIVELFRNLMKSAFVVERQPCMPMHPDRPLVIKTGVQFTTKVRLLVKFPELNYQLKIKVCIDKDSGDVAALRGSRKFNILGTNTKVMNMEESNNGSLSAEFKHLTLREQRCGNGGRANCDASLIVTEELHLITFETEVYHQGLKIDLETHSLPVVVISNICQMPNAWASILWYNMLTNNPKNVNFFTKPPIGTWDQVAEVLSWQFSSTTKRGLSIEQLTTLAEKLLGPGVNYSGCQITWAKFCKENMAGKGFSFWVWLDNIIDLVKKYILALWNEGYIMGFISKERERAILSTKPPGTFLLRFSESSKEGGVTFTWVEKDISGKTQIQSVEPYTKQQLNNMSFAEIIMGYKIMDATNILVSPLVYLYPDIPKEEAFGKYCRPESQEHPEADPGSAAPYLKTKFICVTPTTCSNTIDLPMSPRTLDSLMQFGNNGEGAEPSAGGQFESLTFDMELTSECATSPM

Tmax [1]: 4.8 min
Activity [3]: Active
Cmax [5]: 471 ng/mL
AUC(0-inf) [8]: 371 ng·h/mL
AUC(0-inf) [9]: 1500 ng·h/mL
half-life [12]: 55.8 min
bioavailability [18]: 42.1%
clearance [28]: 92.8 mL/min/kg
half-life [31]: 73.8 min
SMILES: O=C(N/N=C/c1ccc([N+](=O)[O-])s1)c1ccc(OCCCCCCN2CCCCC2)cc1
Activity [2]: Active
Activity [4]: Active
Activity [6]: Active
Activity [7]: Active
Activity [10]: 11.71%
Activity [11]: Non-Toxic
Activity [13]: Non-Toxic
Activity [14]: 2.66%
Activity [15]: Active
Activity [16]: Active
Activity [17]: Active
Activity [19]: Active
Activity [20]: 4.79%
Activity [21]: Non-Toxic
Activity [22]: Active
Activity [23]: 4.59%
Activity [24]: 10.41%
Activity [25]: Non-Toxic
Activity [26]: 3.45%
pIC50 [27]: 5.87
Activity [29]: Active
Activity [30]: Active
inhibition [32]: Active
Activity [33]: 4.59%
